Reference: patent US20070037840A1, “Tricyclic benzimidazoles” (Altana Pharma AG, priority 2003, published 2007)

Legend:
[1] = system: pentagastrin-stimulated acid secretion of the perfused rat stomach; assay: Secretion-inhibiting action on the perfused rat stomach (pentagastrin-stimulated acid secretion); assay type: in vivo; conditions: anesthetized CD rat, dose 2.0 μmol/kg i.d.
Source text: Testing of the Secretion-Inhibiting Action on the Perfused Rat Stomach
In Table A which follows, the influence of the compounds of the formula 1 according to the invention on the pentagastrin-stimulated acid secretion of the perfused rat stomach after intraduodenal administration in vivo is shown.
The abdomen of anesthetized rats (CD rat, female, 200-250 g; 1.5 g/kg i.m. urethane) was opened after tracheotomy by a median upper abdominal incision and a PVC catheter was fixed transorally in the esophagus and another via the pylorus such that the ends of the tubes just projected into the gastric lumen. The catheter leading from the pylorus led outward into the right abdominal wall through a side opening.
After thorough rinsing (about 50-100 ml), warm (37° C.) physiological NaCl solution was continuously passed through the stomach (0.5 ml/min, pH 6.8-6.9; Braun-Unita I). The pH (pH meter 632, glass electrode EA 147; φ=5 mm, Metrohm) and, by titration with a freshly prepared 0.01N NaOH solution to pH 7 (Dosimat 665 Metrohm), the secreted HCl were determined in the effluent in each case collected at an interval of 15 minutes.
The gastric secretion was stimulated by continuous infusion of […] (=1.65 ml/h) of i.v. pentagastrin (left femoral vein) about 30 min after the end of the operation (i.e. after determination of 2 preliminary fractions). The substances to be tested were administered intraduodenally in a 2.5 ml/kg liquid volume 60 min after the start of the continuous pentagastrin infusion. The body temperature of the animals was kept at a constant 37.8-38° C. by infrared irradiation and heat pads (automatic, stepless control by means of a rectal temperature sensor).

| melting point [°C] | SMILES | Inhibition of acid secretion [1] [%] |
| --- | --- | --- |
| 235.4 | Cc1nc2c3c(ccc2n1C)[C@H](O)[C@H](O)[C@@H](c1ccccc1)N3 [Example 6, (6S,7R,8R)-2,3-Dimethyl-6,7-dihydroxy-8-phenyl-6,7,8,9tetrahydro-3H-imidazo[4,5-h]quinoline] | <50 |
| 224.7 | Cc1nc2c3c(ccc2n1C)[C@@H](O)[C@H](O)[C@@H](c1ccccc1)N3 [Example 5, (6R,7R,8R)-2,3-Dimethyl-6,7-dihydroxyl-8-phenyl-6,7,8,9-tetrahydro-3H-imidazo[4,5-h]quinoline] | >50 |
|  | CCO[C@@H]1c2ccc3c(nc(C)n3C)c2N[C@H](c2ccccc2)[C@H]1O [Example 3, (6R,7R,8R)-2,3-Dimethyl-6-ethoxy-7-hydroxy-8-phenyl-6,7,8,9-tetrehydro-3H-imidazo[4,5h]-quinoline] | >50 |
|  | COCCO[C@H]1c2ccc3c(nc(C)n3C)c2N[C@H](c2ccccc2)[C@H]1O [Example 2, (6S,7R,8R)-2,3-Dimethyl-7-hydroxy-6-(2-methoxyethoxy)-8-phenyl-6,7,8,9-tetrahydro-3H-imidazo[4,5-]quinoline] | <50 |
| 169.9 | CCO[C@H]1c2ccc3c(nc(C)n3C)c2N[C@H](c2ccccc2)[C@H]1O [Example 4, (6S,7R,8R)-2,3-Dimethyl-6-ethoxy-7-hydroxy-8-phenyl-6,7,8,9-tetrahydro-3H-imidazo[4,5-h]-quinoline] | <50 |
|  | Cc1nc2c3c(ccc2n1C)[C@@H](OCC(F)F)[C@H](O)[C@@H](c1ccccc1)N3 [Example 7, (6R,7R,8R)-2,3-Dimethyl-7-hydroxy-6-(2,2-difluoroethoxy)-8-phenyl-6,7,8,9-tetrahydro-3H-imidazo[4,5-h]quinoline] | >50 |
|  | COCCO[C@@H]1c2ccc3c(nc(C)n3C)c2N[C@H](c2ccccc2)[C@H]1O [Example 1, (6R,7R,8R)-2,3-Dimethyl-7-hydroxy-6-(2-methoxyethoxy)-8-phenyl-6,7,8,9-tetrahydro-3H-imidazo[4,5h]quinoline] | >50 |
